What all share (type): physicochemical
Data set [1] is described as follows: Lipophilicity, log P of the compound. As to conditions: octanol/water.
Data set [2] is described as follows: Solubility of the compound in methanol.
A short description of data set [3]: Solubility of the compound in ethanol.

On to `CN1CCN(CCCn2cnc3c2c(=O)n(C)c(=O)n3C)CC1`, for which, in data set [1] (read-out: logP), the logP is -0.76. The solubility entry in data set [2] is recorded as “Soluble”.
The corresponding values for `CC(=O)Nc1ccc(/N=C/c2ccco2)cc1` are 1.54 and “Soluble”.
`N#CC(C#N)=CNNC(=O)CNC(=O)c1ccccc1[N+](=O)[O-]`: in data set [1] (read-out: logP), the logP is -0.72. The solubility result in data set [3] is given as “Insoluble”.
The like results for `O=C(Cc1n[nH]c(=O)[nH]c1=O)N/N=C/c1cccc([N+](=O)[O-])c1` were, in that order, 0.86 and “Insoluble”.
`O=C1OC(c2ccccc2)=N/C1=C\Nc1cccc([N+](=O)[O-])c1`: the logP in data set [1] (read-out: logP) is 3.05. Also, the solubility entry in data set [2] is “Insoluble”.
Turning to `O=C(O)CCn1ncc2ccccc21`, the logP in data set [1] (read-out: logP) was 0.91. The solubility result in data set [3] is “Soluble”.
In the case of `COc1ccc(C(=O)/C=C/Nc2ccccc2C#N)cc1`, the log partition coefficient (logP) in data set [1] (read-out: logP) worked out at 2.82. Besides, in data set [3], the solubility result is on record as “Insoluble”.
The corresponding values for `O=C1C=C(Nc2ccccc2O)c2ccccc2C1=O` are 2.8 and “Soluble”.
The like results for `NC(=O)NC(=O)C[n+]1ccc(C(N)=O)cc1` were, in that order, -1.11 and “Insoluble”.
Regarding `O=C(CNC(=O)c1cccnc1)N/N=C/c1ccccn1`, the logP in data set [1] (read-out: logP) is 0.32. For the same compound, the solubility entry in data set [2] is given as “Soluble”.
With `COc1ccc(-c2nn(CCC#N)c(=O)[nH]2)cc1`, the logP in data set [1] (read-out: logP) stood at 1.15. Besides, the solubility entry in data set [3] is “Soluble”.
In the case of `NCC(O)(c1ccc(Cl)cc1)c1ccc(Cl)cc1`, the logP in data set [1] (read-out: logP) stood at 3.63. For the same compound, the solubility entry in data set [2] is “Soluble”.
The corresponding values for `Cc1ccc(NC(=O)c2cnccn2)cc1Cl` are 1.48 and “Insoluble”.
The like results for `O=C(NCCOc1ccccc1)C(=O)Nc1ccccc1` were, in that order, 1.77 and “Insoluble”.
The like results for `O=C(NCc1ccco1)c1cc(C(=O)NCc2ccco2)cc([N+](=O)[O-])c1` were, in that order, 1.56 and “Soluble”.
On to `Cn1c(=N)n(CC(=O)O)c2ccccc21`, for which, in data set [1] (read-out: logP), the log partition coefficient (logP) came out at 1.6. Also, the solubility result in data set [3] is on record as “Soluble”.
The corresponding values for `NNC(=O)c1cccc2cc[nH]c12` are 0.8 and “Insoluble”.
Take `O=C(Oc1ccc(OC(=O)c2ccco2)cc1)c1ccco1`: in data set [1] (read-out: logP), the logP turned out to be 2.53. Further, the solubility entry in data set [2] is given as “Insoluble”.
The corresponding values for `O=C(O)/C=C\C(=O)Nc1ccc(OCC(=O)O)cc1` are 0.6 and “Soluble”.
The like results for `O=C(O)c1ccc2c(c1)C(=O)N(c1ccc(Cl)cc1)C2=O` were, in that order, 3.03 and “Soluble”.
The like results for `Cc1cc(C)nc(NC(=N)Nc2ccc(C(=O)O)cc2)n1` were, in that order, 1.62 and “Soluble”.
For `CN(C)CCN(C)Cc1cccc2ccccc12`, the logP in data set [1] (read-out: logP) stood at 3.05. Besides, in data set [2], the solubility entry is reported as “Insoluble”.
In the case of `O=C(O)c1cccc(NCN2C(=O)c3ccc([N+](=O)[O-])cc3C2=O)c1`, in data set [1] (read-out: logP), the log partition coefficient (logP) was determined as 2.13. In data set [3], the solubility entry is reported as “Insoluble”.
For `O=C(O)CN1C(=O)c2ccccc2C1=O`, in data set [1] (read-out: logP), the logP came out at 0.58. Besides, the solubility result in data set [2] and in data set [3] was “Soluble” each time.
For `COc1ccc(C(=O)COC(=O)/C=C/c2ccccc2)cc1`, the logP in data set [1] (read-out: logP) is 3.7. Moreover, in data set [2], the solubility result is “Insoluble”.
As to `Nc1nonc1-c1noc(-c2cccnc2O)n1`, the logP in data set [1] (read-out: logP) turned out to be 0.04. For the same compound, the solubility result in data set [2] is listed as “Insoluble”.
The like results for `N#CCc1ccc(NC2=NS(=O)(=O)c3ccccc32)cc1` were, in that order, 2.81 and “Insoluble”.
The corresponding values for `O=CNc1nonc1NNc1ccccc1` are 0.89 and “Soluble”.
The like results for `C=CCNC(=O)C(=O)Nc1ccc(C(C)C)cc1` were, in that order, 2 and “Insoluble”.
On to `O=C(O)c1ccc2c(c1)C(=O)N(CCO)C2=O`, for which the logP in data set [1] (read-out: logP) came to 0.09. In addition, the solubility entry in data set [2] is on record as “Soluble”.
Take `O=C(c1ccco1)C12CN3CN(CN(C3)C1)C2`: the logP in data set [1] (read-out: logP) is -0.96. The solubility result in data set [2] is given as “Soluble”.
As for `O=c1nc2oc3cc(O)ccc3cc-2c(=O)[nH]1`, in data set [1] (read-out: logP), the logP was 1.25.
In the case of `O=C(Cn1ncc2cc([N+](=O)[O-])ccc21)NCc1ccco1`, in data set [1] (read-out: logP), the logP amounted to 0.92.
Consider `Cc1ccc(S(=O)(=O)NC(=O)NCc2ccco2)cc1`, for which the logP in data set [1] (read-out: logP) turned out to be 1.2. In data set [3], the solubility result was “Insoluble”.
In the case of `COc1ccc(C(N)Cc2cnc[nH]2)cc1` (configuration not stated), the logP in data set [1] (read-out: logP) worked out at 0.81.
Same read-out and setting: the same measure for `N#Cc1ccc[n+](Cc2cc(=O)[nH]c(=O)[nH]2)c1`: 0.38; for `O=C(O)c1ccc(Cc2ccccc2)o1`: 2.22.
As for `O=C(O)/C=C\C(=O)Nc1ccc(Nc2ccccc2)cc1`, in data set [1] (read-out: logP), the logP came to 2.6. Besides, the solubility entry in data set [2] is recorded as “Soluble”.
For `N#CCCNCc1cccnc1`, the logP in data set [1] (read-out: logP) came to 0.03.
Consider `CC(C)c1ccc(CN2CCN(CCO)CC2)cc1`, for which, in data set [1] (read-out: logP), the logP turned out to be 1.93. The solubility entry in data set [2] is on record as “Insoluble”.
Turning to `COc1cc(CC(=O)O)c([N+](=O)[O-])cc1OC`, in data set [1] (read-out: logP), the logP came to 1.3. Besides, the solubility result in data set [3] was “Insoluble”.
For `CCN1CCN(CCN)CC1`, the logP in data set [1] (read-out: logP) was -0.88. For the same compound, the solubility entry in data set [2] was “Soluble”.
Regarding `NC(N)N/N=C/c1cc(=O)[nH]c(=O)[nH]1`, the lipophilicity (logP) in data set [1] (read-out: logP) was -1.79.
Consider `Nc1nnc(-c2cc3ccc(O)cc3oc2=O)s1`, for which the logP in data set [1] (read-out: logP) amounted to 2.05.
Same read-out and setting: the value for `Nc1nonc1-c1nc2ccccc2n1CC(=O)O` was 1.08; that for `Nn1c(=O)[nH]c2c([nH]c3ccccc32)c1=O` was 0.26.
As for `Cc1cccc(NC(=O)c2ccc(C(=O)Nc3cccc(C)n3)cc2)n1`, the lipophilicity (logP) in data set [1] (read-out: logP) was 2.68. Further, the solubility entry in data set [2] is given as “Insoluble”.
As to `Cc1nccn1S(=O)(=O)c1ccc(F)cc1`, in data set [1] (read-out: logP), the logP amounted to 0.89.
The same measure, in the same setting: the same measure for `NCc1ccccn1`: -0.11; for `Cc1ccc(Nc2n[nH]c(N=CNO)n2)cc1C`: 2.07.
For `CCc1ccc2[nH]c3nc(N/N=C/c4ccc(Cl)cc4)nnc3c2c1`, the logP in data set [1] (read-out: logP) amounted to 7.15. The solubility result in data set [2] is “Insoluble”.
The corresponding values for `O=C(O)c1cc(-c2cccnc2)nc2ccccc12` are 2.51 and “Insoluble”.
As for `O=C(O)c1cnc2c(ccc3ccccc32)c1O`, the logP in data set [1] (read-out: logP) stood at 1.87.
In the case of `Cc1c(OC(C)C(=O)O)ccc2c3c(c(=O)oc12)CCC3` (configuration not stated), the logP in data set [1] (read-out: logP) is 2.6. The solubility result in data set [2] is “Insoluble”.
`Cn1c(=O)c(CC(=O)C(=O)O)nc2ccccc21`: the logP in data set [1] (read-out: logP) was -0.29.
Consider `N=C(N/N=C\c1cccnc1)N/N=C\c1cccnc1`, for which the logP in data set [1] (read-out: logP) came out at 7.05. The solubility entry in data set [2] is listed as “Soluble”.
Turning to `O=C(NNC(=O)c1ccncc1)c1ccncc1`, the logP in data set [1] was determined as 0.05. Moreover, the solubility result in data set [2] is “Soluble”.
Regarding `O=[N+]([O-])c1cccc(-c2noc(Cc3ccccc3)n2)c1`, the logP in data set [1] (read-out: logP) was 3.33. For the same compound, in data set [3], the solubility result is “Insoluble”.
For the compound `N#Cc1ncc(-c2ccccc2)nc1C#N`, the logP in data set [1] (read-out: logP) came out at 0.8.
Take `O=C(CNc1ccc2ccccc2c1)N/N=C/c1ccccn1`: the lipophilicity (logP) in data set [1] (read-out: logP) is 3.16. Besides, the solubility entry in data set [3] was “Insoluble”.
For `O=C(Cc1ccc(Cl)cc1)N/N=C/c1c[nH]c2ccccc12`, the logP in data set [1] (read-out: logP) amounted to 4.74. In addition, the solubility entry in data set [2] is “Soluble”.
On to `Cc1n[nH]c(Nc2ccccc2F)c1[N+](=O)[O-]`, for which the logP in data set [1] (read-out: logP) worked out at 2.63. For the same compound, the solubility entry in data set [3] was “Insoluble”.
With `NC(=O)C1=NC(c2cccnc2)=NC1=O`, the logP in data set [1] (read-out: logP) was -1.12.
The same measure, in the same setting: the same measure for `CNCc1ccccc1Sc1cccc(OC)c1`: 3.92.
Turning to `O=C(O)c1ccc2c(c1)-c1nc3ccccc3n1C2=O`, the logP in data set [1] (read-out: logP) amounted to 2.52. Also, in data set [3], the solubility entry is recorded as “Insoluble”.
As to `Cc1cc(O)nc(-c2ccc(C(N)=O)cc2)n1`, the logP in data set [1] (read-out: logP) came out at 0.86. The solubility result in data set [3] is “Insoluble”.
Regarding `CC(N)c1ccc2ccccc2c1` (configuration not stated), in data set [1] (read-out: logP), the logP worked out at 2.88.
For `Cc1ccc(CN2CCN(Cc3ccccc3)CC2)cc1`, the logP in data set [1] (read-out: logP) was 3.57. The solubility result in data set [2] is recorded as “Insoluble”.
Consider `NC(=O)c1nnn2c1nc(N)c1cc(Cl)ccc12`, for which, in data set [1] (read-out: logP), the logP was -0.14.
The same measure, in the same setting: the value for `O=C(O)CNS(=O)(=O)c1ccc(F)cc1` was 0.66.
For `Oc1ccccc1/C=N/Nc1nnn[nH]1`, the log partition coefficient (logP) in data set [1] (read-out: logP) was determined as 3.23. For the same compound, the solubility result in data set [2] is “Insoluble”.
`c1ccc2c(c1)n[n+]1c3ccccc3[n-]n21`: in data set [1] (read-out: logP), the log partition coefficient (logP) was found to be 2.
Same read-out and setting: the same measure for `O=C(CSc1nc2cccnc2[nH]1)NCCc1ccccc1`: 2.43; for `NC(=O)NNC1CC(=O)N(c2ccc(F)cc2)C1=O` (configuration not stated): -0.43.
With `CCc1cc(=O)oc2cc(OCC(N)=O)ccc12`, the logP in data set [1] (read-out: logP) was 1.46. In addition, in data set [2], the solubility result is reported as “Insoluble”.
On to `O=C(Cc1ccc([N+](=O)[O-])cc1)N/N=C/c1ccc(O)cc1`, for which the logP in data set [1] (read-out: logP) is 3.41. For the same compound, the solubility result in data set [2] is “Insoluble”.
The like results for `Nc1nnnn1/N=C/c1cc2c(cc1[N+](=O)[O-])OCO2` were, in that order, 0.52 and “Insoluble”.
On to `NCCNc1nc(-c2ccccc2)nnc1-c1ccc(Cl)cc1`, for which the logP in data set [1] (read-out: logP) came out at 3.6.
Still for that read-out and setting: the same measure for `Nc1cc2nc3ccccc3nc2cc1N`: 1.66; for `O=C(O)C(O)c1cccc([N+](=O)[O-])c1` (configuration not stated): 0.98.
With `O=C(N/N=C/c1ccc(O)cc1O)c1cccnc1`, the logP in data set [1] (read-out: logP) is 1.88. For the same compound, the solubility result in data set [2] was “Insoluble”.
In the case of `O=C(CC1NCCNC1=O)NCc1ccccc1` (configuration not stated), the logP in data set [1] (read-out: logP) is -0.2.

As usually defined, the logP is the decadic logarithm of the partition coefficient of the neutral form, usually between octanol and water.

The record behind these values is ChEMBL document CHEMBL3880431, “Heme oxygenase inhibitors, screening methods for heme oxygenase inhibitors and methods of use of heme oxygenase inhibitors for antimicrobial therapy” (2013).
